According to patent US11230543B2, “Biaryl monobactam compounds and methods of use thereof for the treatment of bacterial infections” (priority 2015, dated 2022):
Structures can show the parent of a compound that is named as a salt.

Legend:
Format in all cases: cell-based
Conditions in all cases: lowest concentration inhibiting 95% of bacterial growth; in the presence of β lactamase inhibitor Relebactam 4 μg/mL; 35±2° C. for 22 hours; tested range 100 μM to 0.098 μM
[1] = tested on: Pseudomonas aeruginosa expressing AmpC (CL5701); test: Antibiotic activity: growth inhibitory concentration (OD600), Pseudomonas aeruginosa CL5701
Summary of the method: (§1)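 Growth inhibition by OD600 after 22 hours incubation at 35±2° C, reported as lowest concentration inhibiting 95% of growth (MITC95). Final compound range 100 μM to 0.098 μM, always combined with β-lactamase inhibitor relebactam (4 μg/mL final); inoculum ~2×10^5 CFU/mL in cation-adjusted Mueller-Hinton II broth.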

[2] = tested on: Klebsiella pneumoniae expressing KPC-1 (CL6569); test: Antibiotic activity: growth inhibitory concentration (OD600), Klebsiella pneumoniae CL6569
Summary of the method: as §1

[3] = tested on: Escherichia coli expressing NDM-1 (CLB30016); test: Antibiotic activity: growth inhibitory concentration (OD600), Escherichia coli CLB30016
Protocol: (§2) Antibiotic Activity: Determination of Growth Inhibitory Concentration
(§3) The concentrations of compounds required to inhibit the growth of various strains of bacteria were determined in an assay that assessed bacterial growth by measuring optical density at 600 nm (OD600). The bacterial strains tested included the clinical strains Escherichia coli expressing NDM-1 (CLB30016), Klebsiella pneumoniae expressing KPC-1 (CL6569), Acinetobacter baumannii expressing TEM-1, AmpC, and Oxa-24/40 (CL6188) and Pseudomonas aeruginosa expressing AmpC (CL5701). All compounds were tested in the presence of a β lactamase inhibitor (BLi, Relebactam) in 384-well microplates. The clinical strains were stored as frozen single use stocks, thawed and diluted into 1.1× cation-adjusted Mueller-Hinton II broth to achieve approximately 2×10^5 CFU/mL. Test compounds were dissolved in DMSO and diluted 1:50 in the assay, resulting in a final concentration range of 100 μM to 0.098 μM. […] At the end of the incubation, absorbance at 600 nm was determined using a spectrophotometer. Inhibition was quantitated by identifying the lowest concentration of test compound that was required to inhibit 95% of the growth of the bacteria. The results for Examples 1-126 are reported in Table I, expressed as the concentration of compound that inhibited 95% of bacterial growth (Minimum Inhibitory Threshold Concentration; MITC95).

[4] = tested on: Acinetobacter baumannii expressing TEM-1, AmpC, and Oxa-24/40 (CL6188); test: Antibiotic activity: growth inhibitory concentration (OD600), Acinetobacter baumannii CL6188
Protocol: as §2, §3

| Molecule | PA_CL5701 MITC95 [1] | KP_CL6569 MITC95 [2] | EC_CLB30016 MITC95 [3] | AB_CL6188 MITC95 [4] |
| --- | --- | --- | --- | --- |
| C[n+]1cc(-c2ccc(OC[C@H](O/N=C(\C(=O)N[C@@H]3C(=O)N(OS(=O)(=O)[O-])C3(C)C)c3csc(N)n3)C(=O)O)cc2)c(N)n1CCCN [Example 50, (S)-3-((Z)-2-(((S)-2-(4-(5-Amino-1-(3-aminopropyl)-2-methyl-1H-pyrazol-2-ium-4-yl)phenoxy)-1-carboxyethoxy)imino)-2-(2-aminothiazol-4-yl)acetamido)-2,2-dimethyl-4-oxoazetidin-1-yl sulfate] | 6.25 µM | 0.3906 µM | 6.25 µM | 3.125 µM |
| (S)-3-((Z)-2-(((S)-2-(4-(2-(3-amino-2-fluoro-2λ^3-propyl)-1-(azetidin-3-ylmethyl)-1H-pyrazol-2-ium-4-yl)phenoxy)-1-carboxyethoxy)imino)-2-(2-aminothiazol-4-yl)acetamido)-2,2-dimethyl-4-oxoazetidin-1-yl sulfate [Example 121] | 1.563 µM | 0.1953 µM | 6.25 µM | 1.563 µM |
